Results taken from ChEMBL document CHEMBL3044879, “Design, synthesis, and preliminary in vitro and in vivo pharmacological evaluation of 4-{4-[2-(4-(2-substitutedquinoxalin-3-yl)piperazin-1-yl)ethyl]phenyl}thiazoles as atypical antipsychotic agents” (Med Chem Res, 2013).
Calls of active or inactive are those of the source. The calls are words filed in the database; no cut-off is given here.

Columns and labels:
Mus musculus [1] = assay: Antagonist activity at mesolimbic dopaminergic D2 receptor in Swiss albino Mus musculus (mouse) assessed as inhibition of apomorphine-induced cage climbing behavior at 10 mg/kg, ip administered 1 hr prior to apomorphine challenge measured after 20 min relative to vehicle-treated control; assay type: functional; details: route intraperitoneal
Mus musculus [2] = assay: Antagonist activity at mesolimbic dopaminergic D2 receptor in Swiss albino Mus musculus (mouse) assessed as inhibition of apomorphine-induced cage climbing behavior at 10 mg/kg, ip administered 1 hr prior to apomorphine challenge measured after 10 min relative to vehicle-treated control; assay type: functional; details: route intraperitoneal
Mus musculus [3] = assay: Antagonist activity at nigrostriatal dopaminergic D2 receptor in Swiss albino Mus musculus (mouse) assessed as maximum average cataleptic time at 10 mg/kg, ip after 1 to 5 hr relative to vehicle-treated control; assay type: organism-based; design: dose 10 mg/kg, route intraperitoneal; details: in vivo
Mus musculus [4] = assay: Antagonist activity at central serotonergic 5-HT2A receptor in Swiss albino Mus musculus (mouse) assessed as inhibition of quipazine meleate-induced head twiches at 10 mg/kg, ip administered 1 hr prior to quipazine meleate challenge measured after 30 to 40 min relative to vehicle-treated control; assay type: functional; details: route intraperitoneal
Mus musculus [5] = assay: Antagonist activity at mesolimbic dopaminergic D2 receptor in Swiss albino Mus musculus (mouse) assessed as inhibition of apomorphine-induced cage climbing behavior at 10 mg/kg, ip administered 1 hr prior to apomorphine challenge measured after 30 min relative to vehicle-treated control; assay type: functional; details: route intraperitoneal
Mus musculus [6] = assay: Selectivity ratio of inhibition of 5-HT2A receptor in Swiss albino Mus musculus (mouse) to inhibition of dopaminergic D2 receptor in Swiss albino Mus musculus (mouse) at 10 mg/kg, ip; assay type: functional; details: route intraperitoneal
Mus musculus [7] = assay: In vivo inhibition of dopaminergic D2 receptor in Swiss albino Mus musculus (mouse) at 10 mg/kg, ip relative to vehicle-treated control; assay type: functional; details: route intraperitoneal
Mus musculus [8] = assay: In vivo inhibition of 5-HT2A receptor in Swiss albino Mus musculus (mouse) at 10 mg/kg, ip relative to vehicle-treated control; assay type: functional; details: route intraperitoneal
[9] = molecular target: D(2) dopamine receptor (Rattus norvegicus) (UniProt P61169); assay: Displacement of [3H]spiperone from dopaminergic D2 receptor in Rattus norvegicus (rat) straitum membrane homogenates up to 1 uM after 60 min by liquid scintillation counting analysis
Chain of D(2) dopamine receptor (Rattus norvegicus) (P61169 whole entry): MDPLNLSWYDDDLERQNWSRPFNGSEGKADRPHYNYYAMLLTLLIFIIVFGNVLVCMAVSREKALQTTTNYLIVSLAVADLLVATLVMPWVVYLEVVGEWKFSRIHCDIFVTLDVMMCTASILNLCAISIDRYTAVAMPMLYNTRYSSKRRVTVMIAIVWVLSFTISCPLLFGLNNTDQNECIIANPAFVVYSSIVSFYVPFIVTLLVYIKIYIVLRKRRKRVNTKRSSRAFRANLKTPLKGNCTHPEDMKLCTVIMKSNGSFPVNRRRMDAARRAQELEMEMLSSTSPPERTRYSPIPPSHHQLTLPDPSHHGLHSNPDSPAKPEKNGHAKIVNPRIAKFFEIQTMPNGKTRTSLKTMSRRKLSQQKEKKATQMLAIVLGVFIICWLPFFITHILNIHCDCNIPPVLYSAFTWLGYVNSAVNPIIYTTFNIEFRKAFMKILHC

[10] = molecular target: 5-hydroxytryptamine receptor 2A (Rattus norvegicus) (UniProt P14842); assay: Displacement of [3H]ketanserin from 5-HT2A receptor in Rattus norvegicus (rat) cortex membrane homogenates up to 1 uM after 90 min by liquid scintillation counting analysis
Chain of 5-hydroxytryptamine receptor 2A (Rattus norvegicus) (P14842 whole entry): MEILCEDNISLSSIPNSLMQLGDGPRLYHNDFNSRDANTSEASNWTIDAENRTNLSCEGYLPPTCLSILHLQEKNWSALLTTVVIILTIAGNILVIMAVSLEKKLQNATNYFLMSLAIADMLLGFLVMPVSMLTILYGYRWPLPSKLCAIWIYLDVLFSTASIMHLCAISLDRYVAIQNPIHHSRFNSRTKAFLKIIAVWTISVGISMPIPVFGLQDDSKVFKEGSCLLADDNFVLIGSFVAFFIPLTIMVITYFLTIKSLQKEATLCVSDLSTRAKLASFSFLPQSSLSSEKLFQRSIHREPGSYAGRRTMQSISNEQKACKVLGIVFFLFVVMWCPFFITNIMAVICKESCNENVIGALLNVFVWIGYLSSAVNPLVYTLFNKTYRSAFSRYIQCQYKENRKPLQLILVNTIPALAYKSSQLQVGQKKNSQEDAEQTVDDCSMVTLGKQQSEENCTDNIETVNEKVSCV

[11] = molecular target: 5-hydroxytryptamine receptor 2A (Rattus norvegicus) (UniProt P14842); assay: Displacement of [3H]ketanserin from 5-HT2A receptor in Rattus norvegicus (rat) cortex membrane homogenates at 10 uM after 90 min by liquid scintillation counting analysis
[12] = molecular target: D(2) dopamine receptor (Rattus norvegicus) (UniProt P61169); assay: Displacement of [3H]spiperone from D2 receptor in Rattus norvegicus (rat) straitum membrane homogenates at 100 uM after 60 min by liquid scintillation counting analysis

inhibition [9]	inhibition [10]	inhibition [11]	inhibition [12]	SMILES	inhibition in vivo at 10 mg/kg (Mus musculus [1])	inhibition in vivo at 10 mg/kg (Mus musculus [2])	Time (Mus musculus [3])	inhibition in vivo at 10 mg/kg (Mus musculus [4])	inhibition in vivo at 10 mg/kg (Mus musculus [5])	Selectivity ratio (Mus musculus [6])	Imax (Mus musculus [7])	inhibition in vivo at 10 mg/kg (Mus musculus [8])
inactive	inactive			CNc1nc(-c2ccc(CCN3CCN(c4nc5ccccc5nc4OC)CC3)cc2)c(C)s1	50%	60%	3.12 s	80%	70%	1.143	70%	80%
inactive	inactive	30%	0%	Cc1nc(-c2ccc(CCN3CCN(c4nc5ccccc5nc4Cl)CC3)cc2)cs1	65%	80%	3.25 s	62%	75%	0.775	80%	62%
inactive	inactive	0%	0%	Oc1nc(-c2ccc(CCN3CCN(c4nc5ccccc5nc4Cl)CC3)cc2)cs1	60%	60%	28.25 s	58%	50%	0.9667	60%	58%
inactive	inactive	22%	0%	Oc1nc(-c2ccc(CCN3CCN(c4cnc5ccccc5n4)CC3)cc2)cs1	65%	60%	3.19 s	80%	65%	1.231	65%	80%
inactive	inactive	31%	0%	Cc1nc(-c2ccc(CCN3CCN(c4nc5ccccc5nc4Cl)CC3)cc2)c(C)s1	60%	60%	9.25 s	51%	80%	0.6375	80%	51%
inactive	inactive			Cc1nc(-c2ccc(CCN3CCN(c4cnc5ccccc5n4)CC3)cc2)c(C)s1	50%	25%	9.32 s	32%	70%	0.4571	70%	32%
inactive	inactive	4%	0%	Nc1nc(-c2ccc(CCN3CCN(c4nc5ccccc5nc4Cl)CC3)cc2)cs1	60%	65%	18.24 s	79%	70%	1.129	70%	79%

The remaining lines, values behind:

SMILES	inhibition [9]	inhibition [10]	inhibition [11]	inhibition [12]	inhibition in vivo at 10 mg/kg (Mus musculus [1])	inhibition in vivo at 10 mg/kg (Mus musculus [2])	Time (Mus musculus [3])	inhibition in vivo at 10 mg/kg (Mus musculus [4])	inhibition in vivo at 10 mg/kg (Mus musculus [5])	Selectivity ratio (Mus musculus [6])	Imax (Mus musculus [7])	inhibition in vivo at 10 mg/kg (Mus musculus [8])
CNc1nc(-c2ccc(CCN3CCN(c4cnc5ccccc5n4)CC3)cc2)cs1	inactive	inactive	57%	0%	50%	25%	9.32 s	36%	60%	0.6	60%	36%
COc1nc2ccccc2nc1N1CCN(CCc2ccc(-c3nc(C)sc3C)cc2)CC1	inactive	inactive			70%	85%	11.25 s	65%	65%	0.7647	85%	65%
Cc1sc(N)nc1-c1ccc(CCN2CCN(c3nc4ccccc4nc3Cl)CC2)cc1	inactive	inactive	0%	0%	80%	80%	23.5 s	86%	65%	1.075	80%	86%
CNc1nc(-c2ccc(CCN3CCN(c4cnc5ccccc5n4)CC3)cc2)c(C)s1	inactive	inactive			75%	60%	3.88 s	55%	65%	0.7333	75%	55%
COc1nc2ccccc2nc1N1CCN(CCc2ccc(-c3csc(O)n3)cc2)CC1	inactive	inactive	28%	0%	60%	65%	7.9 s	67%	60%	1.031	65%	67%
Cc1sc(N)nc1-c1ccc(CCN2CCN(c3cnc4ccccc4n3)CC2)cc1	inactive	inactive	58%	0%	80%	95%	2.64 s	31%	60%	0.3263	95%	31%
CNc1nc(-c2ccc(CCN3CCN(c4nc5ccccc5nc4Cl)CC3)cc2)c(C)s1	inactive	inactive	31%	0%	95%	95%	8.12 s	81%	70%	0.8526	95%	81%
CNc1nc(-c2ccc(CCN3CCN(c4nc5ccccc5nc4Cl)CC3)cc2)cs1	inactive	inactive	14%	0%	80%	60%	3.96 s	41%	80%	0.5125	80%	41%
COc1nc2ccccc2nc1N1CCN(CCc2ccc(-c3nc(N)sc3C)cc2)CC1	inactive	inactive			80%	65%	10.78 s	60%	65%	0.75	80%	60%
